From US20220002806A1, “BIOMARKER” (ERBER AKTIENGESELLSCHAFT, priority 2018, published 2022)

Test system: miRNAs in serum
Test: Targeted qPCR-based miRNA analysis in blood serum of ZEN-exposed piglets
Format: in vivo, pig
Excerpt: Weaned female piglets (sow: Landrace×Large White, boar: Pietrain; 30+/−2 days old) were obtained from a local producer and individually tagged. Piglets were housed in slatted floor pens under controlled environmental conditions. After an acclimatization period of seven days, twenty-four female piglets were selected based on both body weight and vulva size, and allocated to one of four groups (6 animals/group). Piglets received either blank feed (negative control; Ctrl) or feed contaminated with ZEN in three increasing concentrations (ZEN low: 0.17 mg/kg diet; ZEN medium: 1.5 mg/kg diet; ZEN high: 4.6 mg/kg diet). During the 28-day experimental period, each treatment group was given free access to water and the assigned diet. The pigs were observed daily and weighed weekly.
Blood was collected weekly (d 0, 6, 14, 21 and 28) from individual animals by punctuation of the vena cava cranialis (Primavette® EDTA, Kabe Labortechnik GmbH, Nümbrecht-Elsenroth, Deutschland). After centrifugation (1500×g, 20 min), serum samples were stored at −80° C. for later analysis. Vulva length and width were measured at regular intervals with a caliper to determine the dietary ZEN effects. The vulva area was calculated as vulva length×vulva width, as previously reported (Jiang et al. 2011. Journal of animal science, 89, 3008-3015). Eight measurements were done per piglet over the experimental period.
miRNA extraction and qPCR analysis: Unlike the small-RNA-Seq analysis, all the animals from the feeding trial were used for investigations of the miRNA profile in the serum (6 per group; total of 24 animals). RNA was isolated from the serum samples using the miRNeasy Mini Kit (Qiagen, Germany). […] To calculate the cycle of quantification values (Cq-values), the second derivative method was used, as known by a person skilled in the art. Cq-values were normalized to the mean Cq-value in each sample (global mean normalization) by subtracting the individual miRNA Cq-value from the Cq average calculated for that sample. […]

[1] = Ctrl vs ZEN high group (4.6 mg/kg diet), day 6 or day 28, unadjusted p-value ≤0.1

Structure (SMILES): C[C@H]1CCCC(=O)CCC/C=C/c2cc(O)cc(O)c2C(=O)O1 [ZEN, (2E,11S)-15,17-dihydroxy-11-methyl-12-oxabicyclo[12.4.0]octadeca-1(18),2,14,16-tetraene-7,13-dione]
- serum levels of ssc-miR-1, ssc-miR-142-3p, ssc-miR-181c and ssc-miR-182 [1]: down-regulated
- serum levels of ssc-miR-140-3p, ssc-miR-455-3p, ssc-miR-455-5p and ssc-miR-542-3p [1]: Up-regulated
- log 2-transformed fold changes of serum ssc-miR-129a, ssc-miR-135, ssc-miR-206, ssc-miR-432-5p, ssc-miR-493-3p and ssc-miR-503 (Ctrl vs ZEN high group, log 2 fold changes ≤−0.8 or ≥0.8): considerable effect
